According to patent US20050123476A1 (priority 2001, published 2005):

What was measured:
uPA = uPA (Homo sapiens, UniProt P00749); conditions: cited from earlier work
[1] = test system: human cervix adenocarcinoma HeLa cells; format: cell-based
HT1080 cells = format: cell-based, human
HeLa cells = format: cell-based, human

For PGSGRSA, the “uPA:tPA selectivity” value (uPA) is listed as 20.
For Aprotinin, the “effect on killing of HeLa cells by PrAg-U2 plus FP59” value [1] was “protected” and the “effect on killing of HeLa cells by native PrAg plus FP59” value [1] was “had no effect”.
For PQRGRSA, the “uPA:tPA selectivity” value (uPA) is listed as 0.005.
For `CNC(=O)[C@@H](NC(=O)[C@H](CC(C)C)[C@H](O)C(=O)NO)C(C)(C)C` [BB-2516, Marimastat], the “protection of HT1080 cells against WT-PA plus FP59” value (HT1080 cells) was “did not protect” and the “protection of HT1080 cells against challenge with PA-L1 and PA-L2 plus FP59” value (HT1080 cells) was “conferred clear protection”.
For PGSGKSA, the “uPA:tPA selectivity” value (uPA) is given as 121.
For tranexamic acid [tranexainic acid], the “effect on activation of pro-uPA by HeLa cells” value (HeLa cells) was “strongly inhibited”, the “effect on binding/processing (activation) of PrAg-U2 on the HeLa cell surface” value (HeLa cells) was “strongly inhibited” and the “effect on processing/activation of native PrAg by cells” value (HeLa cells) was “not”.
For `CNC(=O)[C@H](Cc1c[nH]c2ccccc12)NC(=O)[C@@H](CC(=O)NO)CC(C)C` [GM6001], the “protection of HT1080 cells against WT-PA plus FP59” value (HT1080 cells) was “did not protect” and the “protection of HT1080 cells against challenge with PA-L1 and PA-L2 plus FP59” value (HT1080 cells) was “conferred clear protection”.
In the case of PCPGRVVGG, the “uPA:tPA selectivity” value (uPA) is listed as 3.0.
In the case of SGRSA, the “cleavage by uPA, times more efficiently than the physiological cleavage site present in plasminogen” value (uPA) is listed as 1363 fold and the “uPA:tPA selectivity” value (uPA) is listed as 20.
